In PubChem BioAssay AID1963846 (Molecular Pharmacology Branch, DTP, NCI, 2024):
pIC50: −log10 of the molar value.

System: 454973-116-R2-J3-PDC complex spheroid viability
Assay: Anticancer human tumor 454973-116-R2-J3-PDC patient-derived pancreatic carcinoma cell line growth inhibition [POLQ]
Conditions: for pIC50: curve of first compound; for viability, T/C: stronger effect = lower value
Method in brief: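 Patient-derived tumour cells were co-cultured with HUVEC and mesenchymal stem cells as multicellular spheroids at 37 °C. They were treated with POLQ inhibitors (novobiocin, ART-558, RP6685) alone or combined with other agents. Top concentrations were at or near clinical Cmax (otherwise 10 microM; SN-38 at 1 microM), decreasing in half-log steps.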

[1] = second compound 0.0316 µM, first compound 0.0316 µM
[2] = second compound 0.0316 µM, first compound 0.1 µM
[3] = second compound 0.0316 µM, first compound 0.316 µM
[4] = second compound 0.0316 µM, first compound 1 µM
[5] = second compound 0.0316 µM, first compound 3.16 µM
[6] = second compound 0.0316 µM, first compound 10 µM
[7] = second compound 0.1 µM, first compound 0.0316 µM
[8] = second compound 0.1 µM, first compound 0.1 µM
[9] = second compound 0.1 µM, first compound 0.316 µM
[10] = second compound 0.1 µM, first compound 1 µM
[11] = second compound 0.1 µM, first compound 3.16 µM
[12] = second compound 0.1 µM, first compound 10 µM
[13] = second compound 0.316 µM, first compound 0.0316 µM
[14] = second compound 0.316 µM, first compound 0.1 µM
[15] = second compound 0.316 µM, first compound 0.316 µM
[16] = second compound 0.316 µM, first compound 1 µM
[17] = second compound 0.316 µM, first compound 3.16 µM
[18] = second compound 0.316 µM, first compound 10 µM
[19] = second compound 1 µM, first compound 0.0316 µM
[20] = second compound 1 µM, first compound 0.1 µM
[21] = second compound 1 µM, first compound 0.316 µM
[22] = second compound 1 µM, first compound 1 µM
[23] = second compound 1 µM, first compound 3.16 µM
[24] = second compound 1 µM, first compound 10 µM
[25] = second compound 3.16 µM, first compound 0.0316 µM
[26] = second compound 3.16 µM, first compound 0.1 µM
[27] = second compound 3.16 µM, first compound 0.316 µM
[28] = second compound 3.16 µM, first compound 1 µM
[29] = second compound 3.16 µM, first compound 3.16 µM
[30] = second compound 3.16 µM, first compound 10 µM
[31] = second compound 10 µM, first compound 0.0316 µM
[32] = second compound 10 µM, first compound 0.1 µM
[33] = second compound 10 µM, first compound 0.316 µM
[34] = second compound 10 µM, first compound 1 µM
[35] = second compound 10 µM, first compound 3.16 µM
[36] = second compound 10 µM, first compound 10 µM
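Further: spheroids exposed to drugs for seven days before measurement.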
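Wherever viability, T/C is given: percent viability relative to DMSO vehicle control wells taken as 100%.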

CC(C)n1c(=O)n(C)c2cnc3cc(F)c(-c4ccc(OCCCN5CCCCC5)nc4)cc3c21 + Nc1ccc(C#CCN(C(=O)Cc2ncc(C(F)(F)F)cc2C(F)(F)F)c2ccc(F)cc2)nn1
pIC50 (second compound 0.0316 µM): < 5.00 | pIC50 (second compound 0.1 µM): < 5.00 | pIC50 (second compound 0.316 µM): < 5.00 | pIC50 (second compound 1 µM): < 5.00 | pIC50 (second compound 3.16 µM): < 5.00 | pIC50 (second compound 10 µM): < 5.00 | viability, T/C [1]: 101% | viability, T/C [2]: 96% | viability, T/C [3]: 101% | viability, T/C [4]: 96.7% | viability, T/C [5]: 102% | viability, T/C [6]: 75.8% | viability, T/C [7]: 99.3% | viability, T/C [8]: 100% | viability, T/C [9]: 103% | viability, T/C [10]: 115% | viability, T/C [11]: 99.6% | viability, T/C [12]: 76.1% | viability, T/C [13]: 102% | viability, T/C [14]: 102% | viability, T/C [15]: 117% | viability, T/C [16]: 103% | viability, T/C [17]: 101% | viability, T/C [18]: 83.8% | viability, T/C [19]: 114% | viability, T/C [20]: 106% | viability, T/C [21]: 108% | viability, T/C [22]: 114% | viability, T/C [23]: 106% | viability, T/C [24]: 74.7% | viability, T/C [25]: 111% | viability, T/C [26]: 113% | viability, T/C [27]: 105% | viability, T/C [28]: 114% | viability, T/C [29]: 101% | viability, T/C [30]: 83.8% | viability, T/C [31]: 123% | viability, T/C [32]: 107% | viability, T/C [33]: 114% | viability, T/C [34]: 114% | viability, T/C [35]: 104% | viability, T/C [36]: 76.9%

C#Cc1c(F)ccc2cc(O)cc(-c3ncc4c(N5CC6CCC(C5)N6)nc(OCC56CCCN5CC(F)C6)nc4c3F)c12 (stereo unspecified) + Nc1ccc(C#CCN(C(=O)Cc2ncc(C(F)(F)F)cc2C(F)(F)F)c2ccc(F)cc2)nn1
pIC50 (second compound 0.0316 µM): > 7.50 | pIC50 (second compound 0.1 µM): > 7.50 | pIC50 (second compound 0.316 µM): > 7.50 | pIC50 (second compound 1 µM): > 7.50 | pIC50 (second compound 3.16 µM): > 7.50 | pIC50 (second compound 10 µM): > 7.50 | viability, T/C [1]: 47.5% | viability, T/C [2]: 36.1% | viability, T/C [3]: 28.4% | viability, T/C [4]: 24.1% | viability, T/C [5]: 19% | viability, T/C [6]: 18.1% | viability, T/C [7]: 46.1% | viability, T/C [8]: 36% | viability, T/C [9]: 26% | viability, T/C [10]: 24% | viability, T/C [11]: 22.2% | viability, T/C [12]: 18% | viability, T/C [13]: 49.8% | viability, T/C [14]: 35.8% | viability, T/C [15]: 28.9% | viability, T/C [16]: 25.5% | viability, T/C [17]: 22.1% | viability, T/C [18]: 19.6% | viability, T/C [19]: 46.2% | viability, T/C [20]: 35.1% | viability, T/C [21]: 29.3% | viability, T/C [22]: 25.4% | viability, T/C [23]: 22.7% | viability, T/C [24]: 18.8% | viability, T/C [25]: 43.8% | viability, T/C [26]: 35.4% | viability, T/C [27]: 25.6% | viability, T/C [28]: 25.2% | viability, T/C [29]: 21.9% | viability, T/C [30]: 18.5% | viability, T/C [31]: 44.6% | viability, T/C [32]: 39.3% | viability, T/C [33]: 32.8% | viability, T/C [34]: 28% | viability, T/C [35]: 23.4% | viability, T/C [36]: 23.5%

Cn1ncnc1[C@H]1c2n[nH]c(=O)c3cc(F)cc(c23)N[C@@H]1c1ccc(F)cc1 + Cc1cccc(N(C)C(=O)C2C(O)CCN2c2nc(C)cc(C(F)(F)F)c2C#N)c1
pIC50 (second compound 0.0316 µM): < 7.00 | pIC50 (second compound 0.1 µM): < 7.00 | pIC50 (second compound 0.316 µM): < 7.00 | pIC50 (second compound 1 µM): < 7.00 | pIC50 (second compound 3.16 µM): < 7.00 | pIC50 (second compound 10 µM): < 7.00 | viability, T/C (second compound 0.0316 µM, first compound 0.000316 µM): 109% | viability, T/C (second compound 0.0316 µM, first compound 0.001 µM): 97% | viability, T/C (second compound 0.0316 µM, first compound 0.00316 µM): 91.8% | viability, T/C (second compound 0.0316 µM, first compound 0.01 µM): 96.1% | viability, T/C [1]: 108% | viability, T/C [2]: 89.6% | viability, T/C (second compound 0.1 µM, first compound 0.000316 µM): 106% | viability, T/C (second compound 0.1 µM, first compound 0.001 µM): 100% | viability, T/C (second compound 0.1 µM, first compound 0.00316 µM): 95.6% | viability, T/C (second compound 0.1 µM, first compound 0.01 µM): 97.2% | viability, T/C [7]: 94.3% | viability, T/C [8]: 90.1% | viability, T/C (second compound 0.316 µM, first compound 0.000316 µM): 102% | viability, T/C (second compound 0.316 µM, first compound 0.001 µM): 104% | viability, T/C (second compound 0.316 µM, first compound 0.00316 µM): 98.5% | viability, T/C (second compound 0.316 µM, first compound 0.01 µM): 97.6% | viability, T/C [13]: 98.5% | viability, T/C [14]: 85.2% | viability, T/C (second compound 1 µM, first compound 0.000316 µM): 110% | viability, T/C (second compound 1 µM, first compound 0.001 µM): 102% | viability, T/C (second compound 1 µM, first compound 0.00316 µM): 103% | viability, T/C (second compound 1 µM, first compound 0.01 µM): 105% | viability, T/C [19]: 91.7% | viability, T/C [20]: 91.4% | viability, T/C (second compound 3.16 µM, first compound 0.000316 µM): 105% | viability, T/C (second compound 3.16 µM, first compound 0.001 µM): 119% | viability, T/C (second compound 3.16 µM, first compound 0.00316 µM): 103% | viability, T/C (second compound 3.16 µM, first compound 0.01 µM): 108% | viability, T/C [25]: 97.2% | viability, T/C [26]: 85.6% | viability, T/C (second compound 10 µM, first compound 0.000316 µM): 107% | viability, T/C (second compound 10 µM, first compound 0.001 µM): 96% | viability, T/C (second compound 10 µM, first compound 0.00316 µM): 97.5% | viability, T/C (second compound 10 µM, first compound 0.01 µM): 91.8% | viability, T/C [31]: 101% | viability, T/C [32]: 85%
